Experimental findings from US9717772B2, “Interval therapy for the treatment of loss of eyesight in humans with glaucoma and other degenerative eye diseases” (Ramot at Tel-Aviv University Ltd., priority 2012, dated 2017) are described below.

Non-standard residues stand in square brackets, D forms with d. Residues, ends and D or L forms follow the SMILES beside them. Aib = CC(C)(N)C(=O)O

Data set [1] is described as follows: Half-life and concentrations of substance in the rat / vitreal space of the eye. It counts as in vivo. How it is done:
In a further experiment, rats are treated systemically (s.c.) and the experiment is repeated as above. The aim of this study is to verify whether systemic administration produces sufficiently high concentrations in the eye. Therefore, additionally, concentrations of substances of the instant invention are analyzed in the vitreal space of the eye. In animals treated systemically with experimental substances, there is a decrease in RGC apoptosis at least at one time point assessed and significant concentrations of the experimental substances are detected in the vitreal space of the eye.
The experiment is repeated as described above, except that substance is applied (s.c.) once 24 hrs before induction of glaucoma.
In another animal study with glaucomatous rats (procedure as described above, Morrison model) D-Trp-Aib (SEQ ID NO. 30) is applied 3 days prior to the induction of glaucoma (one single s.c injection). […] The explanation of this unexpected finding is that the pretreatment with D-Trp-Aib (SEQ ID NO. 30) leads to formation of non-toxic bulky Aβ aggregates (possibly micro non-toxic bulky Aβ aggregates) consisting of D-Trp-Aib (SEQ ID NO. 30) and physiologically Aβ that is ubiquitously prevailing at low concentrations. These non-toxic bulky Aβ aggregates function in isolating toxic Aβ after glaucoma induction even if the Aβ is released at higher concentrations.

For data set [2], the system named is CA1 region of the hippocampus (Aβ1-42 inhibition of LTP). Kind of data set: Long-term potentiation (LTP) of fEPSPs in hippocampal slices after Aβ1-42 aggregated with or without D-Trp-Aib. As to conditions: Aβ1-42 50 nM aggregated under serial dilution conditions without D-Trp-Aib. It is filed as cell-based, mice. On the procedure:
Aβ1-42 (order number 62-0-80, batch Y11042T1, American Peptide Company, Sunnyvale, Calif. 94086, U.S.A.) is suspended in 100% HFIP (Sigma Aldrich) to approximately 1 mg/ml (2 mg dissolved in 2 ml HFIP) and shaken at 37° C. for 1.5 hours in tightly sealed Eppendorf vials. This is allowed to cool to room temperature and then the solution is portioned into aliquots and the HFIP removed by evaporation using a Speedvac for approximately 30 minutes. When dry, the Aβ1-42 is stored at −20° C. The Aβ1-42 is dissolved in anhydrous DMSO (Sigma Aldrich) to a concentration of 100 fold that required in PBS (i.e. 10 mM for 100 μM) with the aid of an ultrasonic water bath with/without D-Trp-Aib (SEQ ID NO. 30) (i.e. for a 10:1 ratio with D-Trp-Aib (SEQ ID NO. 30) 100 mM for 10 mM Aβ1-42). This solution is then immediately diluted in PBS to a final concentration of 100 μM Aβ in 1% DMSO. These solutions are allowed to aggregate at room temperature for various times (e.g. 1 hour, 1 day, 1 week) before being used. […]
Extracellular recordings of field excitatory postsynaptic potentials (fEPSPs) are obtained from the dendritic region of the CA1 region of the hippocampus using glass micropipettes (1-2 MW) filled with superfusion solution. […] Amplified fEPSPs and NMDA-EPSCs are filtered (3 kHz), digitized (15 kHz) and measured and plotted online, using the “LTP-program”-software. […]

Usually half-life stands for how long it takes for the measured level to halve. Read a low half-life as rapid decline.

Turning to `CC(C)(NC(=O)[C@H](N)Cc1c[nH]c2ccccc12)C(=O)O` [D-Trp-Aib] (H-[dW]-[Aib]-OH; N-terminus and C-terminus assumed), the “detectability in the animal at the time point of glaucoma induction” value in data set [1] (3 days after one single s.c injection) is on record as “no longer detectable”. In data set [1] (in vivo, in the rat), this molecule registered a half-life of 1 to 2 h.

In the case of “Aβ1-42: lyophilized β-amyloid Aβ1-42 peptide (Bachem / American Peptide Company) used as toxic stimulus”, the “inhibition of LTP” value in data set [2] is “strong inhibition of LTP”.
